Test results reported in PMC12174897, “Hitting Two Birds With One Stone: Dual Modulation of Brain Carbonic Anhydrases and Histone Deacetylases Boosts Memory Consolidation” (Archiv Der Pharmazie, 2025).
pEC50: −log10 of the molar value.

Tests used:
hCA I = biological target: T1, hCA I (Homo sapiens, UniProt P00915); assay: stopped-flow CO2 hydrase assay, CA activation; type: biochemical; conditions: for K A hCA I: activation constant, mean from three assays, errors ±5%–10%
T1 construct: purchased
T1 sequence (P00915 whole entry): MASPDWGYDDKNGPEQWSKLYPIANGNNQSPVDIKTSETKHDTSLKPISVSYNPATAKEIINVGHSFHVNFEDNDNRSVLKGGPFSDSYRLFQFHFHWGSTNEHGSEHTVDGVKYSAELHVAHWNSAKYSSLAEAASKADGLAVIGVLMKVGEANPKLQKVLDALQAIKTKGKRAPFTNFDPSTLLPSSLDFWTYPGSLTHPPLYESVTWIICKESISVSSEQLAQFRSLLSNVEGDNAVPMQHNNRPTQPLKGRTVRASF

hCA II = biological target: T2, hCA II (Homo sapiens, UniProt P00918); assay: stopped-flow CO2 hydrase assay, CA activation; type: biochemical; conditions: for K A hCA II: activation constant, mean from three assays, errors ±5%–10%
T2 construct: purchased

hCA IV = biological target: T3, hCA IV (Homo sapiens, UniProt P22748); assay: stopped-flow CO2 hydrase assay, CA activation; type: biochemical; conditions: for K A hCA IV: activation constant, mean from three assays, errors ±5%–10%
T3 construct: made in house
T3 sequence (P22748 19-312): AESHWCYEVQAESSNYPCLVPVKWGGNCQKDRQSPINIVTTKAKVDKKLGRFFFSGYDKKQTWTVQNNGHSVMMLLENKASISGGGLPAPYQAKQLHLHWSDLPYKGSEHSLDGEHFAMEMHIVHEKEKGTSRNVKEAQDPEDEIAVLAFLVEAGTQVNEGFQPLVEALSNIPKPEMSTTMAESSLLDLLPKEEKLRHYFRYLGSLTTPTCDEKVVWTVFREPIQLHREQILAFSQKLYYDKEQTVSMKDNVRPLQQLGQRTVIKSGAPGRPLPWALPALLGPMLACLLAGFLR
Description: (§1) . The potencies were reported as K A values in Table 1 and compared with the reference compound D‐Phe. AC50 curves are reported in the Supporting Information.
(§2) . The uncatalyzed rates were determined in the same manner and subtracted from the total observed rates. Stock solutions of the inhibitor (0.1 mM) were prepared in distilled–deionized water and dilutions up to 0.01 nM were done thereafter with the assay buffer. Inhibitor and enzyme solutions were preincubated together for 15 min at r.t. before the assay, to allow for the formation of the E–I complex. The inhibition constants were obtained by nonlinear least‐squares methods using PRISM 3 and the Cheng‐Prusoff equation [41] and represent the mean from at least three different determinations. Apart from commercial hCAs I and II, all CA isoforms were recombinant proteins obtained in house, as reported earlier.
as §2, with “prior to” for “before”, “least-squares” for “least‐squares”, “Cheng-Prusoff” for “Cheng‐Prusoff”, “[2]” for “[41]”

hCA VA = biological target: T4, hCA VA (Homo sapiens, UniProt P35218); assay: stopped-flow CO2 hydrase assay, CA activation; type: biochemical; conditions: for K A hCA VA: activation constant, mean from three assays, errors ±5%–10%
T4 construct: made in house
T4 sequence (P35218 39-305): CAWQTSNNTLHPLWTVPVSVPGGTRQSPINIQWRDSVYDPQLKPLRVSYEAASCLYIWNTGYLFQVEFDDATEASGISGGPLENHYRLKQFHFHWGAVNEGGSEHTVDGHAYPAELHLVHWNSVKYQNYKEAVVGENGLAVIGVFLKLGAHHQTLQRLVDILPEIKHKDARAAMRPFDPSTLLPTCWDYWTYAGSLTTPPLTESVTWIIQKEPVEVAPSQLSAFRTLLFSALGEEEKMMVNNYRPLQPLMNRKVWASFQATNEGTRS
Description: as §1, §2
as §2, with “prior to” for “before”, “least-squares” for “least‐squares”, “Cheng-Prusoff” for “Cheng‐Prusoff”, “[2]” for “[41]”

hCA VII = biological target: T5, hCA VII (Homo sapiens, UniProt P43166); assay: stopped-flow CO2 hydrase assay, CA activation; type: biochemical; conditions: for K A hCA VII: activation constant, mean from three assays, errors ±5%–10%
T5 construct: made in house
T5 sequence (P43166 whole entry): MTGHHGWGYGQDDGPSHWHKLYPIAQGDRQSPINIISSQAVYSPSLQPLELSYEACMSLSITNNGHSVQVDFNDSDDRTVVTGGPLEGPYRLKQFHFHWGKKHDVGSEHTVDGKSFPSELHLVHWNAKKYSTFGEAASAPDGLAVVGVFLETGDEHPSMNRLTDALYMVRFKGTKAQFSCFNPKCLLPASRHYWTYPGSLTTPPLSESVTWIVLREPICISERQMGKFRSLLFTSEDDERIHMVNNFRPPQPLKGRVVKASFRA
Description: as §1, §2
as §2, with “prior to” for “before”, “least-squares” for “least‐squares”, “Cheng-Prusoff” for “Cheng‐Prusoff”, “[2]” for “[41]”

hCA IX = biological target: T6, hCA IX (Homo sapiens, UniProt Q16790); assay: stopped-flow CO2 hydrase assay, CA activation; type: biochemical; conditions: activation constant; mean from three assays, errors ±5%–10%
T6 construct: made in house

[1] = system: HDAC activity of HeLa nuclear extract; assay: Fluor de Lys-Green HDAC assay kit, HDAC inhibition; type: biochemical
Description: (§3) HeLa nuclear extract, rich in HDAC activity, is included with the kit. Trichostatin A solution was used as a positive control and model inhibitor. Plates were read with excitation at 380 nm and emission at 440 nm on a TECAN Spark multimode microplate reader. Histone deacetylase activity was measured according to the manufacturer's instructions.
as §3, with “Spark®” for “Spark”, “to” for “to the”

Male C57Bl6 mice = assay: Novel object recognition (NOR) paradigm, memory consolidation; type: in vivo; set-up: key to Discrimination index (DI): DI = (tN − tF)/(tN + tF); novel vs familiar exploration time; conditions: for Discrimination index (DI): 5 µL i.c.v., retention test 24 h, vehicle −0.057 ± 0.069; for percentage of time spent exploring familiar vs novel object, retention test: 5 µL i.c.v. immediately after acquisition, retention test 24 h later
Description: This set of experiments was designed to evaluate the impact of single reference compounds (D‐Phe and 19) as well as the dual acting (12 and 14) on recognition memory. These compounds were administered directly into the brain lateral ventricles immediately after the acquisition session to investigate their impact specifically on memory consolidation. […] Such a design avoids the use of amnestic drugs that could interfere with data interpretation and represents an advantage when studying the procognitive potential of novel compounds. The dose range and administration route were also chosen based on previous reports showing that the procognitive effects of CA and HDAC modulators rely on their action on centrally and not peripherally expressed enzymes. Moreover, the injection of the tested compounds directly into the lateral ventricles (i.c.v.) consents widespread drug distribution in the brain and at the same time minimizes potential interference of peripheral phenomena such as barriers crossing, protein binding, drug metabolism, that are highly influenced by specific drug characteristics such as size, solubility, charge. Therefore, the i.c.v. route represents an advantage in studies comparing the potency of compounds by ensuring precise control of drug concentrations in the target organ and excluding confounding factors related to peripheral pharmacokinetic mechanisms.
Figure 5 Dual modulation of CAs and HDACs potently boost recognition memory in mice. (A) Schematic drawing showing the sequence of the behavioral procedures: immediately after the acquisition phase mice received infusions (5 µL) of solutions containing either vehicle, the CA activator D‐Phe, the HDAC inhibitor 19 dual acting compounds 12 and 14 at 0.5, 5, or 50 nmol/µL concentrations. The retention test was performed 24 h later. (B) Percentages of time spent exploring the familiar (F) or novel (N) objects during the retention test. The dashed line indicates a theoretical means of 50%. Statistically significant differences determined by two‐way ANOVA and Bonferroni's MCT: ****p < 0.0001 F versus N. (C) Discrimination indexes calculated with the formula DI = (tN tF)/(tN + tF). Statistically significant differences determined by one‐way ANOVA and Bonferroni's MCT: *p < 0.05; **p < 0.01 versus vehicle‐treated group. In both graphics, data are expressed either as individual data points for each animal (scattered plot) znc means ± SEM represented by bar graphs. N = 6–9 animals by experimental group.
Male C57Bl6 mice were submitted to the stereotaxic surgery to implant a guide cannula into the brain lateral ventricles as described above. One week after the surgery, their behavior was assessed in an open‐field arena (60 × 70 cm and 30 cm high) constructed in white acrylic Plexiglass and placed in a sound‐attenuated room. The detailed experimental procedure is already published. The NOR protocol consists of three sessions: habituation, acquisition, and retention test separated by 24 h intertrial intervals. During habituation, the animals freely explored the empty arena for 10 min. Twenty‐four hours later, each animal was placed in the same position and facing the same direction into the test arena in the presence of two identical objects (gray plastic shapes such as cubes, cylinders, or pyramids 8 cm high) and left free to explore it for 5 min. […] The retention test session was performed 24 h after acquisition, during which, each mouse was again placed in the test arena for 5 min in the presence of one of the familiar object and a novel object. The position of the new objects (left/right) was randomized to prevent bias from order or place preference.

[2] = system: CA activity in cortical and hippocampal brain homogenates; assay: Ex vivo CA activity in brain homogenates after i.c.v. infusion (stopped-flow); conditions: 50 nmol/µL, 5 µL i.c.v., 30 min after infusion; vehicle = 100%
Description: (§4) Specifically, mice were euthanized 30 min after the i.c.v. infusion, their brains were collected, and hippocampi and frontal cortices were immediately dissected on ice and then individually homogenized in 1 mL of ice‐cold 20 mM Hepes buffer (pH 7.5).
The overall catalytic activity of CAs (K cat) of each individual preparation was measured with a stopped flow spectrophotometric method monitoring the physiological CO2 hydration reaction catalyzed by these enzymes [30]
Animals were killed 30 min after drug infusion, and the brain structures were immediately dissected on ice and homogenized. CA activity was measured with a stopped‐flow method. The mean CA activity measured in the group of control mice treated with vehicle was taken as 100%, the activities measured for animals treated with compounds were normalized to this value. Data are expressed as means ± S.E.M. of six–nine mice per experimental group. One‐way ANOVA and Bonferroni MCT, **p < 0.01 versus vehicle.
In the infusion days, a stainless‐steel injection micro‐needle (outer diameter 0.25 mm) connected through a polyethylene catheter to a 1000 µL Hamilton precision syringe was inserted into the cannulae previously implanted and lowered into the lateral cerebral ventricle (DV 2.4 mm). Then, 5 µL of a solution containing the testing compounds or vehicle were delivered using an infusion pump at 1 µL/min flow. The needle was left in place for one additional minute after each infusion to avoid efflux. Thirty minutes after drug injections, the animals were euthanized, their brain immediately removed, the cortices and hippocampi were rapidly dissected on ice, weighted, and stored at –80°C until use.
Animals pertaining to the control group received infusions of vehicle (physiological saline containing 1% DMSO (v/v)).
Brain tissues were homogenized in 1.0 mL of ice‐cold 20 mM Hepes buffer (pH 7.5). After centrifugation at 20,000g for 30 min, an Applied Photophysics stopped‐flow instrument was used for assaying the CA‐catalyzed CO2 hydration activity from the samples as previously described [23, 34]. […] The mean CA activity determined in the brain samples from the control group of mice treated with vehicle was set as 100% and all the individual calculated values were then expressed as a percentage of controls.

[3] = system: HDAC activity in hippocampal and cortical brain homogenates; assay: Ex vivo HDAC residual activity in brain homogenates after i.c.v. infusion (fluorometric); conditions: 50 nmol/µL, 5 µL i.c.v., 30 min after infusion; vehicle = 100%
Description: as §4
Animals were killed 30 min after drug infusion, and the brain structures were immediately dissected on ice and homogenized. HDAC activity was measured with the fluorometric method. The HDAC mean activity of the control group mice was taken as 100%, % of the activities measured for animals treated with compounds were normalized to this value. Data are expressed as means ± S.E.M. of 6–13 mice per experimental group. One‐way ANOVA and Bonferroni MCT, ****p < 0.0001 versus vehicle‐treated group. […]
The residual enzymatic activity in brain tissues was measured using Fluor de Lys‐Green HDAC fluorometric activity assay kit purchased from Enzo Life Sciences (Farmingdale, NY). […] Measurements were performed using a TECAN Spark multimode microplate reader, set to a wavelength of 280 nm. Once the absorbance was measured, the concentration of the enzyme HDAC contained in the brain homogenates was calculated according to Lambert‐Beer's law. […] Fluorescence was measured at 380 nm and detected at 440 nm. Each test included a blank as a reference for minimal fluorescence, containing only buffer and substrate, thus lacking any protein component [49, 50]. […]

[4] = mean from three assays, errors 5%–10%
[5] = supplement InChI file, given as KI

| SMILES | K A hCA I (hCA I) [µM] | K A hCA II (hCA II) [µM] | K A hCA IV (hCA IV) [µM] | K A hCA VA (hCA VA) [µM] | K A hCA VII (hCA VII) [µM] | K A hCA IX (hCA IX) [µM] | pEC50 [1, 4] | Discrimination index (DI) (Male C57Bl6 mice; 0.5 nmol/µL) | Discrimination index (DI) (Male C57Bl6 mice; 5 nmol/µL) | percentage of time spent exploring familiar vs novel object, retention test (Male C57Bl6 mice; 5 nmol/μL) | Discrimination index (DI) (Male C57Bl6 mice; 50 nmol/µL) | percentage of time spent exploring familiar vs novel object, retention test (Male C57Bl6 mice; 50 nmol/μL) | CA activity (%) in cortical homogenates versus vehicle [2] | CA activity (%) in hippocampal homogenates versus vehicle [2] | further results |
| --- | --- | --- | --- | --- | --- | --- | --- | --- | --- | --- | --- | --- | --- | --- | --- |
| Nc1ccccc1NC(=O)c1ccc(NC(=O)NCCc2c[nH]cn2)cc1.O=C(O)C(F)(F)F [Compound 12, 2‐(4‐{3‐[2‐(1H‐imidazol‐4‐yl)ethyl]ureido}benzamido)benzenaminium 2,2,2‐trifluoroacetate] | 75.4 | 66.8 | 23.0 | > 10000 | 32.0 | 68.8 | 5.55 | −0.077 ± 0.078 | 0.288 ± 0.110 | spent significantly more time exploring the novel object | 0.313 ± 0.173 | spent significantly more time exploring the novel object | significantly increased | significantly increased | – |
| Nc1cc(F)ccc1NC(=O)c1ccc(NC(=O)NCCc2c[nH]cn2)cc1.[O-][Cl+3]([O-])([O-])O.[O-][Cl+3]([O-])([O-])O [Compound 14, 4‐{3‐[2‐(1H‐Imidazol‐4‐yl)Ethyl]Ureido}‐N‐(2‐Amino‐4‐Fluorophenyl)Benzamide Diperchlorate] | 53.8 | 49.5 | 49.1 | 37.9 | 26.1 | > 10000 | 5.28 | −0.026 ± 0.274 | 0.317 ± 0.132 | spent significantly more time exploring the novel object | 0.224 ± 0.223 | spent significantly more time exploring the novel object | significantly increased | significantly increased | fold more potent activator of hCA I (hCA I; K A of 14 compared with 12): 1.4 fold; fold more potent activator of hCA II (hCA II; K A of 14 compared with 12): 1.3 fold; fold more potent activator of hCA VII (hCA VII; K A of 14 compared with 12): 1.2 fold |
| Nc1ccccc1NC(=O)c1ccc(NCC(=O)NCCc2ccccc2)cc1 [Compound 19, N‐(2‐Aminophenyl)‐4‐{[2‐Oxo‐2‐(Phenethylamino)Ethyl]Amino}Benzamide] | – | – | > 10000 | > 10000 | > 10000 | – | 4.85 | – | – | – | – | promnesic effect | no differences were observed | no differences were observed | activation constant KA (hCA IV; [5]): > 10 mM; KA (activation constant) (hCA VA; [5]): > 10 mM; activation constant KA (hCA VII; [5]): > 10 mM; HDAC residual activity (%) in cortical homogenates versus vehicle [3]: significant reduction; HDAC residual activity (%) in hippocampal homogenates versus vehicle [3]: significant reduction |
| N[C@H](Cc1ccccc1)C(=O)O [D‐Phe, reference compound] | 86.0 | 0.035 | 49.3 | – | – | – | – | – | – | – | – | promnesic effect | significantly increased | significantly increased | – |
| CC(/C=C/C(=O)NO)=C\[C@@H](C)C(=O)c1ccc(N(C)C)cc1 [Trichostatin A, reference compound] | – | – | – | – | – | – | – | – | – | – | – | – | – | – | pEC50 ([1]; reference inhibitor): 8.74 |
